Reference: patent publication US20190167579A1, “ITRACONAZOLE DRY POWDERS” (priority 2017, published 2019)

System: Calu-3 cell line
Test: cNGI integrated dissolution and permeability on Calu-3 monolayers
Format: in vitro ADME
Protocol: A bio-relevant dissolution testing system was used based on mimicking the air-liquid interface at the respiratory epithelium interface using a cell-based in vitro method. A modified next generation impactor that incorporated cell culture plates onto collection stages (cNGI) was used to uniformly deposit materials onto the cell cultures. Dissolution and permeation of the drug through the epithelial cell monolayer was measured.
Epithelial cell monolayers grown at the air-liquid interface in Snapwell™ (Corning Costar, Massachusetts, USA) permeable insert were integrated into the cNGI. […] The transepithelial electrical resistance (TEER) was measured using an EVOM2 chopstick electrode connected to an EVOM2 Epithelial Voltohmmeter (World Precision Instruments, Hitchin, United Kingdom) and monolayers with a TEER above 450 Ω·cm^2 were deemed confluent. […]
Post-dosing of the dose on to the Snapwells from stage 4, the Snapwells were transferred to 6-well plates, which contained 2mL of PBS pH 7.4±2.0% SDS maintained at 37° C. Basolateral samples were taken at different time points and drug content was measured on an Agilent (Santa Clara, Calif., USA) 1260 Infinity series HPLC. Total dose delivered to the cells was measured from the total amount of drug dissolved over the time-course and from lysing cells post experimentation. […]

SMILES: CCC(C)n1ncn(-c2ccc(N3CCN(c4ccc(OCC5COC(Cn6cncn6)(c6ccc(Cl)cc6Cl)O5)cc4)CC3)cc2)c1=O (stereo not shown) [Pure ITZ, Itraconazole]
- Dissolution and permeability kinetics, comparison: slower
